{
  "source": "paper PMC3493529",
  "about": "“Molecular and Pharmacological Characterization of Serotonin 5-HT2α and 5-HT7 Receptors in the Salivary Glands of the Blowfly Calliphora vicina” (PLoS ONE, 2012)",
  "key": {"[1]": {"molecular_target": "T1, Cv5-HT7 (Calliphora vicina, UniProt I7IA71)", "T1 sequence (I7IA71 entry or part of it)": "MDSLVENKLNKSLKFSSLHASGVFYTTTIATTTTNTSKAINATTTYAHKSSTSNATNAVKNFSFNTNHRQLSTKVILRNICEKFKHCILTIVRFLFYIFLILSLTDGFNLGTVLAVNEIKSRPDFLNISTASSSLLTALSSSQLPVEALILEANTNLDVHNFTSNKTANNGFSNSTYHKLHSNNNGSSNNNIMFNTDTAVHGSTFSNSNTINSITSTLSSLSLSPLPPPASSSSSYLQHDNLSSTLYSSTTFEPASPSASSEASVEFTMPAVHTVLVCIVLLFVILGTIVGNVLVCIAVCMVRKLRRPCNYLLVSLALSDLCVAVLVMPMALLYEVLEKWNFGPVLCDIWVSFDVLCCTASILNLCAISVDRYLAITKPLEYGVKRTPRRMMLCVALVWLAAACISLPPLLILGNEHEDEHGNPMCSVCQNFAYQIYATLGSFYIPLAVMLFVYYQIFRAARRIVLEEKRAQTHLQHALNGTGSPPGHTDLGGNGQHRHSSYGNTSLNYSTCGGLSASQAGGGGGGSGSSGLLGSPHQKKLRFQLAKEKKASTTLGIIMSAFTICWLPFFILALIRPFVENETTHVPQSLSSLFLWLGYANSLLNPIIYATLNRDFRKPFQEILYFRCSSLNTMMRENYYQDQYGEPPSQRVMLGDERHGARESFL", "assay": "cAMP-dependent CNG channel Ca2+ influx (Fluo-4) in Cv5-HT7-expressing flpTM cells, agonists", "format": "cell-based", "conditions": "Cv5-HT7-expressing flpTM cells, 100 µM IBMX", "method": "(§1) We applied a previously established protocol to generate cell lines that constitutively expressed either Cv5-HT2α or Cv5-HT7. […] (flpTM cells, provided by Sibion biosciences GmbH, Jülich, Germany). Approximately 8 µg of the respective expression vectors were introduced into ∼4×10^5 cells by a modified calcium-phosphate method. Stably transfected cells were selected in the presence of the antibiotics Blasticidin (0.1 mg/ml; Cv5-HT2α) or G418 (0.8 mg/ml; Cv5-HT7). Expression of Cv5-HT2α and Cv5-HT7 was monitored by Western blotting with commercially available anti-His antibodies (anti-6x His Epitope Tag; Rockland Immunochemicals Inc, Gilbertsville, USA) and anti-HA antibodies (clone 3F10; Roche, Penzberg, Germany), respectively.\n(§2) The ability of Cv5-HT2α to induce Ca^2+ signals in the transfected cell line was measured with the Ca^2+-sensitive dye Fluo-4. Similarly, Cv5-HT7-induced cAMP production was indirectly monitored by the cAMP-dependent activation of the cyclic nucleotide-gated ion channel in flpTM cells (see above). The cyclic nucleotide-gated ion channel is permeable to Ca^2+ ions and thus an increase in [cAMP]i leads to an influx of Ca^2+ ions, which can be detected with Fluo-4. […] After 1 h, the loading solution was substituted for dye-free ES. To inhibit cAMP hydrolysis in Cv5-HT7-expressing cells, ES containing 100 µM isobutylmethylxanthine (IBMX) was used. Plates were transferred into a fluorescence reader (FLUOstar Omega; bmg, Offenburg, Germany) and Fluo-4 fluorescence was monitored. […] Fluorescence emission was detected at 520 nm. Once the basal fluorescence in each well had reached a stable value, various concentrations of the respective ligands were added. The resulting changes in Fluo-4 fluorescence were recorded automatically."}, "[2]": {"molecular_target": "T2, Cv5-HT2α (Calliphora vicina, UniProt I7JA47)", "T2 sequence (I7JA47 entry or part of it)": "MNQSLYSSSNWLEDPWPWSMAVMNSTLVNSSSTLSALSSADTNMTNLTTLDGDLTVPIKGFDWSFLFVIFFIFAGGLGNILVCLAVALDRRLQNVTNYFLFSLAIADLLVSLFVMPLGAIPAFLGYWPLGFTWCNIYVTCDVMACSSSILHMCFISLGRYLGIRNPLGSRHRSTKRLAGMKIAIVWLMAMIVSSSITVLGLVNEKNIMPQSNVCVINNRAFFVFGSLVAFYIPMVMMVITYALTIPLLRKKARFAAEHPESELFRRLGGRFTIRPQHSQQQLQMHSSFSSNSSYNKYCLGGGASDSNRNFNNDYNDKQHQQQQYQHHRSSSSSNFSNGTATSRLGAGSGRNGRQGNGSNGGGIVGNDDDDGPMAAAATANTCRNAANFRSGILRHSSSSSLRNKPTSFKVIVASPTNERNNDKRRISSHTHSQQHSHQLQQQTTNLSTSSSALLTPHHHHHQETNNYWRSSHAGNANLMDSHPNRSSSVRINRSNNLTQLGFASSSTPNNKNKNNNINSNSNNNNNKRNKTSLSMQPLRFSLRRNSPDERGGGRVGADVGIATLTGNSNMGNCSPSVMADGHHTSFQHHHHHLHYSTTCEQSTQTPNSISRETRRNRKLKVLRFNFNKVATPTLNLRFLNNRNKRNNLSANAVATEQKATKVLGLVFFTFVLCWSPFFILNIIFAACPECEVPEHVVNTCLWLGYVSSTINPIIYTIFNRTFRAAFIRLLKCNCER", "assay": "Ca2+ signals (Fluo-4) in Cv5-HT2α-expressing HEK 293 cells, agonists", "format": "cell-based", "conditions": "Cv5-HT2α-expressing HEK 293 cells", "method": "as §1, §2"}, "[3]": {"system": "blowfly salivary glands", "assay": "Transepithelial potential (TEP) of blowfly salivary glands, agonists", "format": "cell-based, Calliphora vicina", "set-up": "key to negative TEP phase / positive TEP phase: ++: high amplitude; +: low amplitude; -: no apparent effect; -/+: variable effect", "method": "(§3) The abdominal portions of salivary glands were dissected in physiological saline (in mM: 128 NaCl, 10 KCl, 2 CaCl2, 2.7 MgCl2, 3 Na-glutamate, 2.8 maleic acid, 10 D-glucose and 10 Tris-HCl, pH 7.2). Measurements of transepithelial potential (TEP) were performed by the oil-gap method with a DPA-2F differential amplifier (npi Electronic Instruments, Tamm, Germany). Data were sampled and digitized at 1 Hz (KUSB-3102 module for AD-conversion; Keithley, Germering, Germany) by using the software TestPoint (v4.1; Capital Equipment Corp, Billerica, MA, USA) for data acquisition and storage."}, "[4]": {"molecular_target": "T1, Cv5-HT7", "assay": "Inhibition of 5-HT-induced Fluo-4 signals in Cv5-HT7-expressing cells", "format": "cell-based", "conditions": "in the presence of 6 nM 5-HT", "method": "as §1, with “Cv5-HT7. For Cv5-HT2α expression, human embryonic kidney cells (HEK 293; ECACC, Salisbury, UK) were chosen.” for “Cv5-HT7.”\n(§4) The ability of Cv5-HT2α to induce Ca^2+ signals in the transfected cell line was measured with the Ca^2+-sensitive dye Fluo-4. Similarly, Cv5-HT7-induced cAMP production was indirectly monitored by the cAMP-dependent activation of the cyclic nucleotide-gated ion channel in flpTM cells (see above). The cyclic nucleotide-gated ion channel is permeable to Ca^2+ ions and thus an increase in [cAMP]i leads to an influx of Ca^2+ ions, which can be detected with Fluo-4. Cells were grown in 96-well plates to a density of ∼3×10^4 (Cv5-HT2α) or 1.5×10^4 (Cv5-HT7) and then incubated in extracellular solution (ES in mM: 120 NaCl, 5 KCl, 2 CaCl2, 2 MgCl2, 10 glucose, 10 HEPES, pH 7.4) containing 3 mM probenecid, 0.02% (w/v) Pluronic® F-127 (Sigma) and 2 µM Fluo-4AM (Invitrogen). After 1 h, the loading solution was substituted for dye-free ES. To inhibit cAMP hydrolysis in Cv5-HT7-expressing cells, ES containing 100 µM isobutylmethylxanthine (IBMX) was used. Plates were transferred into a fluorescence reader (FLUOstar Omega; bmg, Offenburg, Germany) and Fluo-4 fluorescence was monitored. The excitation wavelength was 485 nm. Fluorescence emission was detected at 520 nm. Once the basal fluorescence in each well had reached a stable value, various concentrations of the respective ligands were added. The resulting changes in Fluo-4 fluorescence were recorded automatically.\n(§5) Changes in Ca^2+-dependent Fluo-4 signals were registered automatically. Data represent the means±SD of eight replicates. […] Relative fluorescence (%) is normalized to the values obtained with 100 nM 5-HT in the absence of antagonists. […] Relative fluorescence (%) is normalized to the values obtained with 6 nM 5-HT in the absence of antagonists."}, "[5]": {"molecular_target": "T2, Cv5-HT2α", "assay": "Inhibition of 5-HT-induced Ca2+ signals in Cv5-HT2α-expressing cells", "format": "cell-based", "conditions": "in the presence of 100 nM 5-HT", "method": "as §1, with “Cv5-HT7. For Cv5-HT2α expression, human embryonic kidney cells (HEK 293; ECACC, Salisbury, UK) were chosen.” for “Cv5-HT7.”\nas §4, §5"}, "[6]": {"system": "blowfly salivary glands", "assay": "5-HT-induced TEP response of blowfly salivary glands, antagonists", "format": "cell-based, Calliphora vicina", "set-up": "key to suppression of the positive TEP phase: ++: complete; +: incomplete; -: no apparent effect; -/+: variable effect; key to suppression of the negative TEP phase: ++: high amplitude; +: low amplitude; -: no apparent effect; -/+: variable effect", "conditions": "10 µM", "method": "as §3"}, "[7]": {"conditions": "Fluo-4 signal, read-out: Cv5-HT7 EC50"}, "[8]": {"conditions": "Cv5-HT2α EC50, Ca2+-dependent Fluo-4 signal"}, "[9]": {"conditions": "Cv5-HT2α log EC50, Ca2+-dependent Fluo-4 signal"}, "[10]": {"conditions": "TEP response evoked with 10 nM or 30 nM 5-HT"}},
  "note": "Where a name gives a salt, the structure may show the parent alone. Read-outs that look alike come from different tables or passages of the source.",
  "data": [
    {"smiles": "CCCN(CCC)C1CCc2cccc(O)c2C1", "note": "(racemic) [8-OH-DPAT, (+/−)-8-hydroxy-2-(dipropylamino)tetralin]", "values": [
      {"measurement": "EC50", "setting": "[1]; [7]", "result": 7900, "unit": "nM"},
      {"measurement": "EC50", "setting": "[1]; Fluo-4 signal, read-out: Cv5-HT7 log EC50 (converted)", "result": 7940, "unit": "nM"},
      {"measurement": "EC50", "setting": "[2]; [8]", "result": 62000, "unit": "nM"},
      {"measurement": "EC50", "setting": "[2]; [9]", "result": 61700, "unit": "nM"}
    ]},
    {"smiles": "NCCc1c[nH]c2ccc(C(N)=O)cc12", "note": "[5-CT, 5-carboxamidotryptamine]", "values": [
      {"measurement": "TEP change of salivary glands", "setting": "[3]; 0.3 µM", "result": "only a positive-going TEP change"},
      {"measurement": "negative TEP phase", "setting": "[3]; 0.3 µM", "result": "-"},
      {"measurement": "positive TEP phase", "setting": "[3]; 0.3 µM", "result": "+"},
      {"measurement": "reversibility", "setting": "[3]; 0.3 µM", "result": "yes"},
      {"measurement": "negative TEP phase", "setting": "[3]; 10 µM", "result": "++"},
      {"measurement": "positive TEP phase", "setting": "[3]; 10 µM", "result": "++"},
      {"measurement": "reversibility", "setting": "[3]; 10 µM", "result": "yes"},
      {"measurement": "TEP change of salivary glands", "setting": "[3]; concentrations 1 µM", "result": "biphasic TEP response"},
      {"measurement": "Cv5-HT7 log EC50", "setting": "[1]; Fluo-4 signal", "result": "−6.37±0.02"},
      {"measurement": "EC50", "setting": "[1]; [7]", "result": 430, "unit": "nM"},
      {"measurement": "Cv5-HT2α log EC50", "setting": "[2]; Ca2+-dependent Fluo-4 signal", "result": "−4.29±0.05"},
      {"measurement": "EC50", "setting": "[2]; Ca2+-dependent Fluo-4 signal, read-out: Cv5-HT2α EC50", "result": 51000, "unit": "nM"}
    ]},
    {"smiles": "COc1ccc2[nH]cc(CCN)c2c1", "note": "[5-MeOT, 5-methoxytryptamine]", "values": [
      {"measurement": "TEP change of salivary glands", "setting": "[3]; 30 nM or 100 nM", "result": "only a negative-going TEP change"},
      {"measurement": "negative TEP phase", "setting": "[3]; 0.03-0.1 µM", "result": "++"},
      {"measurement": "positive TEP phase", "setting": "[3]; 0.03-0.1 µM", "result": "-"},
      {"measurement": "reversibility", "setting": "[3]; 0.03-0.1 µM", "result": "yes"},
      {"measurement": "negative TEP phase", "setting": "[3]; 1-100 µM", "result": "++"},
      {"measurement": "positive TEP phase", "setting": "[3]; 1-100 µM", "result": "+"},
      {"measurement": "reversibility", "setting": "[3]; 1-100 µM", "result": "yes"},
      {"measurement": "TEP change of salivary glands", "setting": "[3]; 1–100 µM", "result": "biphasic response"},
      {"measurement": "EC50", "setting": "[1]; Cv5-HT7 EC50, Fluo-4 signal", "result": 950, "unit": "nM"},
      {"measurement": "EC50", "setting": "[1]; Cv5-HT7 log EC50, Fluo-4 signal", "result": 955, "unit": "nM"},
      {"measurement": "EC50", "setting": "[2]; [8]", "result": 67, "unit": "nM"},
      {"measurement": "EC50", "setting": "[2]; [9]", "result": 67.6, "unit": "nM"}
    ]},
    {"smiles": "Cc1nn(C)c(C)c1-c1cccc2c1CC[C@H](N(C)C)C2", "note": "[AS 19, (2S)-(+)-5-(1,3,5-Trimethylpyrazol-4-yl)-2-(dimethylamino)tetralin]", "values": [
      {"measurement": "negative TEP phase", "setting": "[3]; 100 µM", "result": "-"},
      {"measurement": "positive TEP phase", "setting": "[3]; 100 µM", "result": "-/+"},
      {"measurement": "reversibility", "setting": "[3]; 100 µM", "result": "yes"},
      {"measurement": "TEP change of salivary glands", "setting": "[3]; 1–100 µM", "result": "only positive-going changes in the TEP"},
      {"measurement": "Cv5-HT7 log EC50", "setting": "[1]; Fluo-4 signal", "result": "−6.52±0.04"},
      {"measurement": "EC50", "setting": "[1]; [7]", "result": 300, "unit": "nM"},
      {"measurement": "Cv5-HT2α EC50", "setting": "[2]; Ca2+-dependent Fluo-4 signal", "result": "no effect"},
      {"measurement": "Cv5-HT2α log EC50", "setting": "[2]; Ca2+-dependent Fluo-4 signal", "result": "no effect"}
    ]},
    {"smiles": "CC1CCN(CC[C@H]2CCCN2S(=O)(=O)c2cccc(O)c2)CC1", "note": "[SB-269970]", "values": [
      {"measurement": "Cv5-HT7 log IC50", "setting": "[4]", "result": "−8.06±0.21"},
      {"measurement": "inhibitory efficacy at Cv5-HT7 (reduction of the 5-HT-evoked cellular response)", "setting": "[4]", "result": "~15", "unit": "%"},
      {"measurement": "IC50", "setting": "[4]; read-out: Cv5-HT7 IC50", "result": 9, "unit": "nM"},
      {"measurement": "Cv5-HT2α log IC50", "setting": "[5]", "result": "−4.27±0.30"},
      {"measurement": "IC50", "setting": "[5]; read-out: Cv5-HT2α IC50", "result": 53000, "unit": "nM"}
    ]},
    {"smiles": "CN(C)CCCSc1ccccc1NC(=O)/C=C/c1ccccc1", "note": "[cinanserin, cinanserin hydrochloride]", "values": [
      {"measurement": "IC50", "setting": "[4]; read-out: Cv5-HT7 IC50", "result": 400, "unit": "nM"},
      {"measurement": "IC50", "setting": "[4]; read-out: Cv5-HT7 log IC50 (converted)", "result": 398, "unit": "nM"},
      {"measurement": "IC50", "setting": "[5]; read-out: Cv5-HT2α IC50", "result": 30000, "unit": "nM"},
      {"measurement": "IC50", "setting": "[5]; read-out: Cv5-HT2α log IC50 (converted)", "result": 29500, "unit": "nM"},
      {"measurement": "effect on 5-HT-induced TEP response", "setting": "[6]", "result": "reversibly but incompletely inhibited the positive phase"},
      {"measurement": "reversibility", "setting": "[6]; [10]", "result": "yes"},
      {"measurement": "suppression of the negative TEP phase", "setting": "[6]; [10]", "result": "-"},
      {"measurement": "suppression of the positive TEP phase", "setting": "[6]; [10]", "result": "+"}
    ]}
  ]
}
